Data taken from US5453426A, “Sulfur-containing xanthine derivatives as adenosine antagonists” (priority 1994, dated 1995).
In brackets after ≈: the same amount, converted by molar mass. Like-named read-outs stand apart in the source and are kept apart here.

Legend:
A2 receptor = conditions: relative to 8-phenyltheophylline; cited from earlier work
A1 receptor = conditions: relative to 8-phenyltheophylline; cited from earlier work
tracheal relaxation = conditions: background, ref 9a, cited from earlier work; for cardiac or behavioral stimulation: accompanying tracheal relaxation
cardiac depression = conditions: background, ref 9b; cited from earlier work
adenosine receptor = conditions: background; read-out: Ki-values as adenosine antagonists; cited from earlier work
A1 -adenosine receptors [1] = conditions: background; cited from earlier work
A2 adenosine receptors [2] = target: T1, A2 adenosine receptors (Rattus norvegicus, UniProt P30543); set-up: A2 -adenosine receptors in rat striatal membranes; from tissue; host or cells: rat striatum membranes; conditions: cited from earlier work
A1 adenosine receptors = target: T2, A1 adenosine receptors (Rattus norvegicus, UniProt P25099); assay: Inhibition of binding of [3H]N6-phenylisopropyladenosine to A1 adenosine receptors in rat cerebral cortical membranes; conditions: for Ki (A2)/Ki (A1): ratio of A2 (rat striatum) to A1 (rat cortex) Ki; for Ki: rat cortical membranes, [3H]PIA, single determination in triplicate or average of three ± S.E.M., read-out: Ki A1-receptors; for fold less potent at A1-receptors: 6-thio analog versus oxygen analog (CPX or DPX, 24)
T2 construct: A1 adenosine receptors in rat cerebral cortical membranes; from tissue; host or cells: rat cerebral cortex membranes
T2 sequence (P25099 1-326): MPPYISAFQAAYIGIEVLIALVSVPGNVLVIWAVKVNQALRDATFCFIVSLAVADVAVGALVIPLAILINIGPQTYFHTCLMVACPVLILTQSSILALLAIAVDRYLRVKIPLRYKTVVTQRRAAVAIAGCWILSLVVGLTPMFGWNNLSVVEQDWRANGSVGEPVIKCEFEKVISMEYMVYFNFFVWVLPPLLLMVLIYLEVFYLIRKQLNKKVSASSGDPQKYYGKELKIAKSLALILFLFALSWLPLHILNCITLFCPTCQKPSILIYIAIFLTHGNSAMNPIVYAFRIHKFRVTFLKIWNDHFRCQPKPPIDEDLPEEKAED

[3] = Limit of solubility in the A2 binding assay; format: physicochemical; conditions: binding assay medium
Text: Thus, compound 22 is >285-fold A1 -selective in these binding assays.

A2 adenosine receptors [4] = target: T1, A2 adenosine receptors; assay: Inhibition of binding of [3H]N-ethylcarboxamidoadenosine to A2-adenosine receptors in rat striatal membranes; conditions: for A2 affinity/potency, in words: relative to the analogs named in the text
Description: Affinity at A1 - and A2 -adenosine receptors was measured in competitive binding assays, using as radioligands [^3 H]N^6 -phenylisopropyladenosine^17 (with rat cerebral cortical membranes) and [^3 H]5'-N-ethylcarboxamidoadenosine (with rat striatal membranes),^18 respectively.
N^6 -Cyclopentyladenosine was present at 50 nM to inhibit binding of the ligand at A1 -adenosine receptors. Inhibition of binding by a range of concentrations of xanthines was assessed in triplicate in at least three separate experiments. IC50 -values were converted to Ki-values by the method of Bruns et al,^18 using a conversion factor derived from the affinity of [^3 H]N-ethylcarboxamidoadenosine at A2 receptors and the Cheng-Prusoff equation.^19

[5] = target: Nethylcarboxamidoadenosine-stimulated adenylat cyclase; conditions: PC12 cell membranes; printed in brackets in the A2 Ki column; ref 10b; read-out: Kb for inhibition of N-ethylcarboxamidoadenosine-stimulated adenylate cyclase; cited from earlier work
A1 -adenosine receptors [6] = conditions: ref 10a; cited from earlier work
[7] = values taken from Bruns et al. (ref 18)
[8] = read-out: Ki A2-receptors, rat striatal membranes, [3H]NECA, single determination in triplicate or average of three ± S.E.M.

T1 sequence (P30543 whole entry): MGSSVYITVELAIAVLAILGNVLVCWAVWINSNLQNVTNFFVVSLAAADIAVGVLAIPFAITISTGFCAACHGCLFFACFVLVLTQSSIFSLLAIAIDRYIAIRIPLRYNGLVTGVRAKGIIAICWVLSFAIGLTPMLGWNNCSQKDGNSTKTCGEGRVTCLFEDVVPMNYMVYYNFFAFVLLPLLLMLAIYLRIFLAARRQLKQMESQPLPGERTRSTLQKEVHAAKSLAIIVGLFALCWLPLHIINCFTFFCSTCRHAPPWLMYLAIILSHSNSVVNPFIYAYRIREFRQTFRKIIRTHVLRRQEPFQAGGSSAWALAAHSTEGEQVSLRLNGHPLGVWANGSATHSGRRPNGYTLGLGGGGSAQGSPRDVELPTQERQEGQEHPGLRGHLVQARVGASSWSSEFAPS

| Structure (SMILES) | Ki (A2)/Ki (A1) (A1 adenosine receptors) | Ki (A2 adenosine receptors [4]) [nM] | Ki (A1 adenosine receptors) [nM] | also measured |
| --- | --- | --- | --- | --- |
| Cn1c(=O)c2sc(-c3ccccc3)nc2n(C)c1=O |  |  |  | reduction of activity at an A2 receptor by thio-substitution (A2 receptor): ~100 fold; reduction of activity at an A1 receptor by thio-substitution (A1 receptor): 1000 fold |
| Cn1c(=S)c2c(ncn2C)n(C)c1=O [6-thiocaffeine] |  |  |  | cardiac or behavioral stimulation (tracheal relaxation): without cardiac or behavioral stimulation; tracheal relaxation (tracheal relaxation): induce tracheal relaxation; cardiac effect (cardiac depression): cause cardiac depression rather than stimulation |
| Cn1c(=S)c2[nH]cnc2n(C)c1=O [6-thiotheophylline] |  |  |  | cardiac or behavioral stimulation (tracheal relaxation): without cardiac or behavioral stimulation; tracheal relaxation (tracheal relaxation): induce tracheal relaxation; cardiac effect (cardiac depression): cause cardiac depression rather than stimulation |
| Cn1c(=O)c2[nH]cnc2n(C)c1=O [Compound 1a, theophylline] |  |  |  | Ki (adenosine receptor): ≥ 10000 nM |
| CCCn1c(=O)c2[nH]c(C3CCCC3)nc2n(CCC)c1=O [Compound 2b, 8-cyclopentyl-1,3-dipropylxanthine] |  |  |  | potency in binding at A1-adenosine receptors versus theophylline (A1 -adenosine receptors [1]): more than four orders of magnitude more potent than theophylline |
| CCCn1c(=O)c2[nH]c(-c3ccc(OCC(=O)NCCN)cc3)nc2n(CCC)c1=O [Compound 3, 8-(4-(2-amino-ethylaminocarbonylmethyloxy)phenyl)-1,3-dipropylxanthine] |  |  |  | potency in binding at A1-adenosine receptors versus theophylline (A1 -adenosine receptors [1]): more than four orders of magnitude more potent than theophylline |
| Cn1c(=O)c2nc(-c3ccoc3)[nH]c2n(C)c1=O [Compound 16, reference compound] | 13.6 |  |  | Ki (A2 adenosine receptors [2]; [7]): 984 ± 70 nM |
| CCCn1c(=O)c2[nH]c(-c3ccc(OCC(=O)NCCNC)cc3)nc2n(CCC)c1=O [Compound 32] |  |  |  | Kb [5]: 9.3 ± 2.1 nM |
| CCCn1c(=O)c2[nH]c(-c3ccc(OCC(=O)NCCNC(=O)[C@H](N)CCCCNC(=O)OCc4ccccc4)cc3)nc2n(CCC)c1=O [Compound 40] | 30 | 191 ± 13 |  |  |
| CCCn1c(=O)c2[nH]c(-c3ccc(OCC(=O)NCCNC(=O)[C@H](N)CCCCNC(=O)OCc4ccccc4)cc3)nc2n(CCC)c1=S [Compound 41] | 36 | 322 ± 17 |  |  |
| CCCn1c(=O)c2[nH]c(-c3ccc(OCC(=O)NCCNC(=O)[C@H](N)CCCCN)cc3)nc2n(CCC)c1=O [Compound 42] | 210 |  | 0.87 ± 0.09 | Ki (A2 adenosine receptors [4]; [8]): 180 nM |
| CCCn1c(=O)c2[nH]c(-c3ccc(OCC(=O)NCCNC(=O)Cc4cccs4)cc3)nc2n(CCC)c1=O [Compound 46] | 8.1 | 147 ± 5 | 18.3 ± 3 |  |
| CCCn1c(=O)c2[nH]c(-c3ccc(OCC(=O)NCCNC(=O)Cc4ccc(I)s4)cc3)nc2n(CCC)c1=O [Compound 48] | 10.3 | 116 ± 25 | 11.3 ± 1.5 |  |
| Cn1c(=S)c2[nH]c(-c3ccccc3)nc2n(C)c1=O [Compound 56] | 8.18 | 11300 | 1380 |  |

Second part, led by results:

| Ki (A2)/Ki (A1) (A1 adenosine receptors) | Ki (A2 adenosine receptors [4]) [nM] | Ki (A1 adenosine receptors) [nM] | Structure (SMILES) | also measured |
| --- | --- | --- | --- | --- |
| 7.94 |  |  | Cn1c(=O)c2[nH]c(-c3ccco3)nc2n(C)c1=O [Compound 15, reference compound] | Ki (A2 adenosine receptors [2]; [7]): 2780 nM |
| > 285 | > 10000 | 35.1 ± 6 | CCCn1c(=O)c2[nH]c(-c3cccs3)nc2n(CCC)c1=S [Compound 22, 1,3-Dipropyl-8-(2-thienyl)-2-thioxanthine] | solubility [3]: ~10 µM (≈ 3.34 µg/mL); A2 affinity/potency, in words (A2 adenosine receptors [4]): did not bind measurably to A2 -receptors at its limit of solubility; A1-selectivity (A1 adenosine receptors; A1 (rat cortex) versus A2 (rat striatum) binding): > 285 fold; A1-selectivity, in words (A1 adenosine receptors; A1 versus A2 binding, relative to oxygen analogs): a greater margin of A1 -selectivity |
| 3.6 | 46.8 ± 9.4 |  | CCCn1c(=O)c2[nH]c(-c3ccc(OCC(=O)NCCNC(=O)[C@H](N)CCCCN)cc3)nc2n(CCC)c1=S [Compound 43] |  |
| 56 |  |  | CCCn1c(=O)c2[nH]c(-c3ccc(OCC(=O)NCCNC(=O)CCCCCCC(=O)ON4C(=O)CCC4=O)cc3)nc2n(CCC)c1=O [Compound 44] | irreversible inhibitor of A1-adenosine receptors at concentrations (A1 -adenosine receptors [6]): greater than 50 nM; Ki (A2 adenosine receptors [2]; values taken from Jacobson et al. (ref 10)): 207 ± 57 nM |
| 85 |  | 7.44 ± 0.98 | CCCn1c(=O)c2[nH]c(-c3ccc(OCC(=O)NCCNC(=O)CCCCCCC(=O)NCc4cccs4)cc3)nc2n(CCC)c1=O [Compound 49] | Ki (A2 adenosine receptors [4]; [8]): 630 ± 160 nM |
| 285 | 11500 | 40.5 ± 6.6 | Cn1c(=S)c2[nH]c(C3CCCC3)nc2n(C)c1=S [Compound 52] |  |
| 572 | 2780 | 4.87 ± 0.82 | CCCn1c(=S)c2[nH]c(C3CCCC3)nc2n(CCC)c1=S [Compound 53] | A2 affinity/potency, in words (A2 adenosine receptors [4]): intermediate in potency between the corresponding 2-thio and 6-thio analogs; A1 affinity/potency, in words (A1 adenosine receptors; relative to the analogs named in the text): intermediate in potency between the corresponding 2-thio and 6-thio analogs |
| 44.4 | 8980 | 202 ± 26 | Cn1c(=S)c2[nH]c(C3CCCC3)nc2n(C)c1=O [Compound 54] |  |
| 217 | 3360 | 15.5 ± 1.5 | CCCn1c(=S)c2[nH]c(C3CCCC3)nc2n(CCC)c1=O [Compound 55, 8-cyclopentyl-1,3-dipropyl-6-thioxanthine] | fold less potent at A1-receptors (A1 adenosine receptors): 17 fold |
| 3.47 | 3510 | 1010 | CCn1c(=S)c2[nH]c(-c3ccccc3)nc2n(CC)c1=O [Compound 57] | fold less potent at A2-receptors (A2 adenosine receptors [4]; 6-thio analog 57 versus DPX, 24): 12 fold; fold less potent at A1-receptors (A1 adenosine receptors): 23 fold |
